Measurements from patent EP0987025A1, “Pharmaceitical composition or composition package containing a pyrimidine nucleoside analogue and a purine nucleoside analogue” (priority 1998, dated 2000).
Like-named read-outs stand apart in the source and are kept apart here.

How the values were obtained:
LP-BM5 = format: in vivo, C57BL/6 mice; settings: at 10 weeks after infection
From the text: LP-BM5 virus was provided by Robert Yetter (Veternas Administration Hospital, Baltimore, MD) and was maintained in a persistently infected SC- 1 cell line as described (Hosier D.E., Yetter R.A., Morse H.C. III, "Functional T lymphocytes are required for a murine retrovirus induced immunodeficiency disease (MAIDS)", J. Exp. Med. 1987; 165:1737-42). C57BL/6 female mice were purchased from Nossan, Milan, Italy and were used at 5 weeks of age. Animals were infected by means of two successive intraperitoneal injections at 24-hr intervals. In the experiments reported three different virus preparations were used.
Mice were housed at 22±1°C with a 12-hr light-dark cycle, 60±5% humidity, and 12 air changes/hr.
First, the efficacy of 2-fluoro-ara-AMP (F-araAMP, Fludara) in inhibiting murine AIDS (MAIDS), a disease characterized by a lymphoproliferative disorder (lymphadenopathy and splenomegaly), associated with severe immunodeficiency and hypergammaglobulinemia, was evaluated. The disease develops in some strains of mice (C57BL/6) that are infected with a murine leukemia virus mixture termed LP-BM5. In the first preliminary experiments (after about 4 months from infection) LP-BMS infected animals were treated with three different concentrations of F-ara-AMP: 0.065 mg/mouse, 0.325 mg/mouse, 0.650 mg/mouse. The animals of each group were treated intraperitoneally for 3 days a week and for 3 weeks. At the end of the treatment animals were killed and splenomegaly, lymphadenopathy and hypergammaglobulinemia were evaluated.
Infected mice after 7 weeks from infection were treated intraperitoneally with Fludara as follows: • 1. 0.65 mg/mouse once a day for 4 days a week (total dose 7.8 mg/mouse); • 2. 0.65 mg/mouse twice a day for 5 days a week (total dose 19.5 mg/mouse); • 3. […]

BM5d proviral DNA = assay: PCR analysis of BM5d proviral DNA in spleen, lymph node and bone marrow; format: in vivo, C57BL/6 mice; settings: at 10 weeks after infection
From the text: The following oligonucleotide primers were used for the amplification of a 141-bp gag gene of defective virus genome (BM5d); 5' primer, 5'-AACCTTCCTCCTCTGCCA-3' (sense) corresponding to nucleotides 1456-1473 and 3' primer, 5'-ACCACCTCTCGGGCTTTC-3' (antisense) corresponding to nucleotides 1579-1596 of the BM5d genome (Chat topadhyay SK, Sengupta D.N., FredricksonT.N., Morse H.C. III, Hartley J.W., "Characteristics and contributions of defective, ecotropic and mink cell focus-inducing viruses in a retrovirus induced immunodeficiency syndrome of mice.", J..Virol. 1991; 65: 4232-41.). A second pair or oligonucleotide primers was used for amplification of 203-bp of the mouse glucose-6-phosphate dehydrogenase (G6PD) gene. This amplification served as an internal control (endogenous standard) for evaluation of the relative BM5d proviral DNA. The nucleotide primers for the amplification were as follows: 5' primer, 5'-[…]-3' (sense) and 3' primer, 5'-[…]-3' (antisense) (Kurdi-Haidar B., Mason P.J., Berrebi A., et al., "Origin and spread of the glucose-6-phosphate dehydrogenase variant (G6PD-Mediterranean) in the Middle East.", Am. J. Hum. Genet. 1990; 47:1013-19.).
Probe D30, which was derived from the 137-bp Smal-Xhol p12 gag fragment of the defective virus genome (DU5H), was kindly provided by P. Jolicoeur (Montreal, Canada) (Aziz D.C., Hanna Z., Jolicoeur P., "Severe immunodeficiency disease induced by a defective murine leukemia virus.", Nature 1989; 338: 505-08).
Total cellular DNA was isolated from the spleens, lymph nodes and bone marrow of uninfected, infected and infected/treated mice by the sodium iodide isopropanol method.
PCR amplifications were performed in a 25 µl final volume using the Perkin Elmer GeneAMP kit (1 mM MgCl2, 2.5 U AmpliTag) with 0.3 µg total cellular DNA and 20 pmol of each primer.
PCR reaction were carried out for 37 cycles at 95°C for 30 sec, 58°C for 30 sec and 72°C for 30 sec with a final extension at 72°C for 10 min.
Products were analyzed by electrophoresis on agarose gel, blotted and hybridized with either the ^32P-labeled D30 or G6PD probe.
The intensity of radiolabeled bands was analyzed and quantified in a GS-250 Molecular Imager™ (Bio-Rad, Hercules, CA, USA). For BM5d proviral DNA detection the relative integration was determined by dividing the intensity of the BM5d bands by the intensity of G6PD bands (Fraternale A., Casabianca A., Rossi L., et al., "Inhibition of murine AIDS by combination of AZT and dideoxycytidine 5'-triphosphate.", J. Acquir. Imm. Def Syndr. and Hum. Retrovir. 1996; 12:164-73). The percentages of inhibition were referred to the infected mice.

[1] = Stability in drinking water; format: physicochemical; settings: 0.25 mg/ml, room temperature, changed every 3 days
Description: AZT (Sigma) was administered ad libitum in the drinking water at a concentration of 0.25 mg/ml. AZT was stable in the drinking water at room temperature and was changed every 3 days.

[2] = treatment a: AZT 250 mg/l in drinking water for 6 weeks
[3] = treatment b: AZT 250 mg/l in drinking water for 10 weeks

Compound: Cc1cn([C@H]2C[C@H](N=[N+]=[N-])[C@@H](CO)O2)c(=O)[nH]c1=O [AZT, 3'-Azido-3'-desoxythymidin]
- Lymph node w. (LP-BM5; [2]): 1.060 ± 0.240 g
- Spleen w. (LP-BM5; [2]): 0.520 ± 0.070 g
- Lymph node w. (LP-BM5; [3]): 0.550 ± 0.330 g
- Spleen w. (LP-BM5; [3]): 0.580 ± 0.150 g
- bone marrow, BM5d proviral DNA copy number (E) (BM5d proviral DNA; [2]): 28,500±3,535 Proviral DNA molecules per 0.3 µg of total cellular DNA
- bone marrow, inhibition of BM5d (% vs. Infected) (F) (BM5d proviral DNA; [2]): 4.135±5.847%
- lymph node, BM5d proviral DNA copy number (C) (BM5d proviral DNA; [2]): 30,966±7,169 Proviral DNA molecules per 0.3 µg of total cellular DNA
- lymph node, inhibition of BM5d (% vs. Infected) (D) (BM5d proviral DNA; [2]): 85.89±3.26 %
- spleen, BM5d proviral DNA copy number (A) (BM5d proviral DNA; [2]): 135,000±20,000 Proviral DNA molecules per 0.3 µg of total cellular DNA
- spleen, inhibition of BM5d (% vs. Infected) (B) (BM5d proviral DNA; [2]): 15.14±9.60%
- bone marrow, BM5d proviral DNA copy number (E) (BM5d proviral DNA; [3]): 13,761±8,766 Proviral DNA molecules per 0.3 µg of total cellular DNA
- bone marrow, inhibition of BM5d (% vs. Infected) (F) (BM5d proviral DNA; [3]): 51.51±30.83 %
- spleen, BM5d proviral DNA copy number (A) (BM5d proviral DNA; [3]): 39,669±19,026 Proviral DNA molecules per 0.3 µg of total cellular DNA
- spleen, inhibition of BM5d (% vs. Infected) (B) (BM5d proviral DNA; [3]): 73.30±12.53 %
- stability in the drinking water [1]: stable
